Results from patent publication US20250381307A1, “RETRO-AAV AND USE IN TREATING NEURODEGENERATIVE DISEASES” (priority 2023, published 2025).

How the values were obtained:
[1] = Locomotion test in naive macaques without viral injection; assay type: in vivo; conditions: DCZ 0.3 mg/kg i.m., FIG. 35A-35G
[2] = target: T1, rM3Ds (Rattus norvegicus, UniProt P08483, A177S/A238G/A489L/DEL261-437/DEL441-478/E258S/I253V/I483M/INS256[…]/K178L/K182A/K255R/K484R/K486H/L173F/L482A/M480V/R171S/R176Q/R179M/S481M/T174R/T181R/T257A/Y148C)
T1 sequence (P08483 with tags, fused parts or gaps Y148C/R171S/L173F/T174R/R176Q/A177S/K178L/R179M/T181R/K182A/A238G/I253V/K255R/INS256[…]/T257A/E258S/DEL261-437/DEL441-478/M480V/S481M/L482A/I483M/K484R/K486H/A489L): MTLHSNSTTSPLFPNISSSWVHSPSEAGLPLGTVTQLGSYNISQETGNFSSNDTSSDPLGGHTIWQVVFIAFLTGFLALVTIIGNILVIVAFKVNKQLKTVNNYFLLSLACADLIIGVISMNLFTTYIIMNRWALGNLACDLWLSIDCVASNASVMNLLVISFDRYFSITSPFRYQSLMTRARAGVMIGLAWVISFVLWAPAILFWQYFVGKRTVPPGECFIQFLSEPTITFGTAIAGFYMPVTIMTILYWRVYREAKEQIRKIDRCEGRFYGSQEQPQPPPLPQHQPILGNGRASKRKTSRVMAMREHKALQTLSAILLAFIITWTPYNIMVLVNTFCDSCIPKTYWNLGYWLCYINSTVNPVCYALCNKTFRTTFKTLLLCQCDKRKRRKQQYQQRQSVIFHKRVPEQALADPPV
Description: Monkeys were continuously monitored by veterinarians after lesion.
Dyskinesia score criteria were: 0: Absent. 1: Mild, fleeting, present <30% of the observation period.
Each block included ten continuous trials.
Customized surface EMG electrodes were used for EMG recordings. […] The recording procedure was conducted immediately after DCZ infusions.

[3] = CSF concentration of DCZ by LC-MS; assay type: in vivo, macaques; conditions: 24 hours after drug infusion, 0.3 mg/kg i.m., FIG. 24D
Description: One month of washout was allowed before administration of DCZ.

[4] = Blood test of liver- and kidney-related factors during DCZ treatment; assay type: in vivo, macaques; conditions: FIG. 36B-36F
Description: FIG. 36A-36F depict effects of D1-MSN activation on dyskinesia-like behavior and health state-related blood factors in parkinsonian macaques. FIG. 36A illustrates quantitation of dyskinesia score at 2 months, 4 months, and 8 months after treatment with DCZ. n=3 monkeys per group.

[5] = target: T1, rM3Ds; assay: In vivo electrophysiological recording in caudate/putamen of MPP+ lesioned macaques; parameters: rM3Ds; 2A-EYFP (C); host or cells: AAV8R12-transduced striatal D1-MSNs of mice and cynomolgus macaques (in vivo and acute slices)
Description: Electrophysiological recording was performed through a recording chamber while the monkey was anesthetized. Neural responses were recorded by a 16-channel linear probe (Plexon Inc, Uprobe) driven by a mechanical microdrive (Alpha Omega, FlexMT). Signals were passed through a head stage (Plexon Inc, HST/16V-G20 LN) and then split and filtered between 300 Hz and 5 kHz to identify spiking activity with an amplifier system (Plexon Inc, OmniPlex). Detected spikes were then sorted by commercially available software (Plexon Inc, Offline Sorter) for further analysis. To quantify the effect of CNO/DCZ injection, neural activity was recorded for 60 minutes following CNO/DCZ injection. The response time-course for each channel was obtained by counting the spikes within every 10-minute window and then normalizing to the maximal.
To determine the effect of CNO/DCZ injection on the direction of signal change, we performed Pearson correlation between neural responses and time using the ‘corr’ function in Matlab, which generates the correlation coefficient ‘r’ and significant level ‘p’. A neuron was considered to have “Increased” activity when r>0 and p<0.05; and considered to have “Decreased” activity when r<0 and p<0.05. Otherwise, neurons were considered to be “Unchanged” in their neural activities. The responses of all increased neurons were then averaged after being normalized by the maximal response (Crowe et al., 2014; Dai and Wang, 2018; Hirokawa et al., 2019) following CNO/DCZ injection, and then plotted as a function of time to generate the normalized population response.

SMILES: CN1CCN(C2=Nc3ccccc3Nc3ccccc32)CC1 [DCZ, deschloroclozapine]
- motor-related behaviors in naïve monkeys [1]: did not alter motor-related behaviors
- efficacy after extended prior L-Dopa administration ([2]; 4 months prior L-Dopa, 1 month washout, FIG. 24F-24L): did not affect the efficacy of DCZ treatment or the absence of dyskinesia
- alleviation of parkinsonian symptoms over long-term treatment ([2]; 8-month continuous treatment with DCZ): appeared to be consistent
- motor skills ([2]; DCZ, hand to mouth movement): a significant recovery of motor skills
- alleviation of symptoms after each dose at steady-state efficacy ([2]; FIG. 24C): at least 24 hours
- parkinsonian symptoms ([2]; MPP+ macaques with AAV8R12-G88P7-rM3Ds-2A-EYFP, DCZ 0.3 mg/kg i.m., L-Dopa/benserazide 20/5 mg/kg/day oral): a reversal of canonical parkinsonian symptoms in all tested monkeys
- tremor ([2]; after DCZ treatment, EMG): great reduced or even eliminated
- speed of reversal of symptoms ([2]; initial phase of drug administration, FIG. 24B): faster reversal of symptoms than levodopa
- dyskinesia ([2]; long-term treatment): dyskinesia-free
- duration of effect (FIG. 18C) ([2]; n=3 monkeys): over 24 hr
- spontaneous movement in an observation cage ([2]; systemic DCZ): an increase in spontaneous movement
- DCZ levels in cerebrospinal fluid [3]: no detectable levels
- blood levels of common liver- and kidney-related factors (ALT, AST, GGT, CREA, BUN) [4]: remained stable
- caudate/putamen cells activated (FIG. 15G) ([5]; CNO 36 cells, DCZ 31 cells, saline 17.9%): 41.9%
- caudate/putamen cells inactivated (FIG. 15G) ([5]; saline 33.4%): 9.7%
- caudate/putamen cells unchanged (FIG. 15G) ([5]; saline 48.7%): 48.4%
